Laboratory results as given in patent publication US20030190325A1, “Novel peroxiredoxin defense system from mycobacterium tuberculosis” (priority 2002, published 2003).

T1: Lpd (porcine) (Sus scrofa, UniProt P09623)
T1 sequence (P09623 36-509): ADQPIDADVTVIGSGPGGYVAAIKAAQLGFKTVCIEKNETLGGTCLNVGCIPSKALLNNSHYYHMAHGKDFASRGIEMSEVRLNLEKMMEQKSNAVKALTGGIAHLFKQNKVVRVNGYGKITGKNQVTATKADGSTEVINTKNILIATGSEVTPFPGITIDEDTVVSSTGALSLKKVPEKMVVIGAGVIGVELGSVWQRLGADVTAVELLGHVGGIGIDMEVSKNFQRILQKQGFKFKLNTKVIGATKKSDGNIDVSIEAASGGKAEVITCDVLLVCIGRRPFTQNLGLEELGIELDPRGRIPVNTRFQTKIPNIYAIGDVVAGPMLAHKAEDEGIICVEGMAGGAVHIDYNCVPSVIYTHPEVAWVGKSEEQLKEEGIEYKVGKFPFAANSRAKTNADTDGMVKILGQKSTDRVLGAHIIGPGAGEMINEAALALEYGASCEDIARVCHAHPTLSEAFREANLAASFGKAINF

T2: SucB (Mycobacterium tuberculosis, UniProt P9WIS7)
T2 construct: Lpd and SucB ORFs were amplified by PCR from M. tuberculosis H37Rv genomic DNA; made in house; host or cells: E. coli BL21(DE3), pET11c, culture supplemented with lipoic acid
T2 sequence (P9WIS7 1-553): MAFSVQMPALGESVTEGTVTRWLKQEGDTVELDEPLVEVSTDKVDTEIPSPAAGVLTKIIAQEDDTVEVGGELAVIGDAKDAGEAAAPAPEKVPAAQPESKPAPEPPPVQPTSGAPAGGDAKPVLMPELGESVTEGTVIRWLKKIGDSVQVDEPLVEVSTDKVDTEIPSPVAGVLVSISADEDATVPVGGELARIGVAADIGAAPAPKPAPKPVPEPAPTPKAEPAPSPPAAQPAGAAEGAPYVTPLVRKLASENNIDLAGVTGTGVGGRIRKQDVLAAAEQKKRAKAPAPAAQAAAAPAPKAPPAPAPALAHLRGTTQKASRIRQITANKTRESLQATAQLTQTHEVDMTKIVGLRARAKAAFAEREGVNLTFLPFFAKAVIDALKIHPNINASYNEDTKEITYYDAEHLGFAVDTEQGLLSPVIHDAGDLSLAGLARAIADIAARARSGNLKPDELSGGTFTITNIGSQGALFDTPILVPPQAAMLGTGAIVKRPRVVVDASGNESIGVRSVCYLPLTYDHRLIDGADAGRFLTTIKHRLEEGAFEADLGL

B1: AhpD (protein encoded by the ahpD gene, Rv2429, of Mycobacterium tuberculosis) (enzyme)
chain: MSIEKLKAALPEYAKDIKLNLSSITRSSVLDQEQLWGTLLASAAATRNPQVLADIGAEATDHLSAAARHAALGAAAIMGMNNVFYRGRGFLEGRYDDLRPGLRMNIIANPGIPKANFELWSFAVSAINGCSHCLVAHEHTLRTVGVDREAIFEALKAAAIVSGVAQALATIEALSPS
notes: Homotrimer in the crystal; also called recombinant AhpD

Columns and labels:
Lpd (porcine) = molecular target: T1, Lpd (porcine); assay: Counter-test on porcine Lpd; type: biochemical; design: key: “NE” means no effect; conditions: at 10 μM
αKG-DH (porcine) = assay: Counter-test on porcine αKG-DH; type: biochemical; design: key to αKG-DH (porcine): “NE” means no effect; conditions: at 50 μM
TR (bovine) = assay: Counter-test on bovine TR; type: biochemical; design: key: “NE” means no effect; conditions: at 10 μM
SucB = molecular target: T2, SucB; assay: Inhibition constant for the enzyme identified as target: SucB; type: biochemical
Text: Table 2 lists the molecular structures of eleven chemical compounds that were identified from the above screen. The first three compounds in Table 2 were further identified as to which of the 3 enzymes (AhpD, Lpd, SucB) each inhibited.

[1] = molecular target: the molecule itself; assay: X-ray crystal structure at 2.0 Å, homotrimer

Molecule	Lpd (porcine) (Lpd (porcine))	αKG-DH (porcine) inhibition (αKG-DH (porcine))	Macs Viabil. (50 μM) (mouse macrophages)	TR (bovine) (TR (bovine))	αKG-DH (porcine) (αKG-DH (porcine))	Ki (SucB)	binding result [1]
Cc1cc(C)cc(/N=C2/NC(=O)/C(=C\c3cc(Br)c(O)c([N+](=O)O)c3)S2)c1 [2368-0687]	NE at 10 µM	5-10% inhi- bition at 50 μM	70% ±13% *clu- sters	NE at 10 μM			
O=C(O)CCN1C(=O)/C(=C\c2ccc(-c3cccc(C(F)(F)F)c3)o2)SC1=S [2556-0286]	NE at 10 μM		80% ±1%	NE at 10 μM	NE at 50 μM	3 µM	
O=C(O)CN1C(=O)/C(=C\c2ccc(-c3cccc(Cl)c3Cl)o2)SC1=S [3229-2113]	NE at 10 μM		91% ±5%	NE at 10 μM	NE at 50 μM	6 µM	
B1							binds
